Assay results published in PubChem BioAssay (NCI).
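Here, GI50 denotes the concentration required for 50% inhibition of growth. The concentration for full growth arrest is given as TGI.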

What was measured:
Experiment in all cases: NCI anticancer screen, dose series, 384-well format
[1] = tested on: SK-MEL-28 melanoma
[2] = tested on: MALME-3M melanoma
[3] = tested on: HCT-15 colon
[4] = tested on: MDA-MB-231 breast
[5] = tested on: HCC-2998 colon
[6] = tested on: PC-3 prostate
[7] = tested on: MCF7 breast
[8] = tested on: U251 glioblastoma
[9] = tested on: SF-539 CNS
[10] = tested on: OVCAR-5 ovarian
[11] = tested on: IGROV1 ovarian
[12] = tested on: UACC-257 melanoma
[13] = tested on: K-562 leukemia

`COC(=O)c1ccc([C@H]2c3[nH]c4ccccc4c3C[C@H](C(=O)OC)N2C(=O)CCl)cc1` was tested, and the GI50 [1] was 1450 nM, the TGI [1] was 2830 nM and the GI50 [2] was 14.8 nM. For the same compound, the TGI [2] was 29 nM, the GI50 [3] was 157 nM and the TGI [3] was 913 nM. It also gave a GI50 [4] of 14.4 nM, a TGI [4] of 28.6 nM and a GI50 [5] of 30.3 nM. For the same compound, the TGI [5] was 177 nM, the GI50 [6] was 34.4 nM and the TGI [6] was 140 nM. The GI50 [7] was 553 nM, the TGI [7] was 1830 nM and the GI50 [8] was 119 nM. The TGI [8] was 399 nM, the GI50 [9] was 33.9 nM and the TGI [9] was 114 nM. It also gave a GI50 [10] of 289 nM, a TGI [10] of 1580 nM and a GI50 [11] of 14.2 nM. The TGI [11] was 27.5 nM, the GI50 [12] was 86.8 nM and the TGI [12] was 336 nM. It also gave a GI50 [13] of 46.2 nM and a TGI [13] of 382 nM.
